Measurements as given in patent US12195482B1 (Arcus Biosciences, Inc., priority 2022, dated 2025).

Assays:
[1] = molecular target: T1, p-AXL (Homo sapiens, UniProt P30530); experiment: Axl phosphorylation inhibition ELISA in HEK293T cells transfected with NanoLuc-tagged AXL; format: cell-based; details: 1 h compound incubation, media (OptiMEM)
T1 construct: expressed in transfected cells; host or cells: HEK293T
T1 sequence (P30530 26-894): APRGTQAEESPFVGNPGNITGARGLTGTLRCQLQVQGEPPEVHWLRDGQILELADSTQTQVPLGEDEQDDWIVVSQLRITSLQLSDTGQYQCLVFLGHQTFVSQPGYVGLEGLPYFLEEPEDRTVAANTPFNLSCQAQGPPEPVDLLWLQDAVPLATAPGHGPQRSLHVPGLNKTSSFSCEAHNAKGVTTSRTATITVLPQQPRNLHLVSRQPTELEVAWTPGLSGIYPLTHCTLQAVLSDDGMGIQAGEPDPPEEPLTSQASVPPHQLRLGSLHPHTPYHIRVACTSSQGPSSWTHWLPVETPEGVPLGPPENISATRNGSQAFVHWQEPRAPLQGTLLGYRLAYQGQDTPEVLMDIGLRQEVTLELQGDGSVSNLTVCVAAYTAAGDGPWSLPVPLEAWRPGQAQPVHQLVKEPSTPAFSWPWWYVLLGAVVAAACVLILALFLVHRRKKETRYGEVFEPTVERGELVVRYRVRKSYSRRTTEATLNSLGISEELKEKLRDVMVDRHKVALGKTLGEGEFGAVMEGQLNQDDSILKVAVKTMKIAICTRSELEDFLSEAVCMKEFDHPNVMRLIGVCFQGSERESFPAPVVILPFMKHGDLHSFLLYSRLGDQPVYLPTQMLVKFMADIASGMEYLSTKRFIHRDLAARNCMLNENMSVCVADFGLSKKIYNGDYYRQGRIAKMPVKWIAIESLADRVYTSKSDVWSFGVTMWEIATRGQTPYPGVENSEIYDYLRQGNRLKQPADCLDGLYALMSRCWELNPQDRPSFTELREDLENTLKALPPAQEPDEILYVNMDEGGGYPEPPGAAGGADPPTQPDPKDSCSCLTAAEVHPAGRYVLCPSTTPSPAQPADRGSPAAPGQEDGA
Protocol: [formula] Measurement of Axl Phosphorylation Inhibition
The dose-response assays were performed in S-Bio PrimeSurface® 3D culture: Ultra-low Attachment Plates: 384 well, U bottom (#MS-9384UZ) containing 400 nL of 22 serial 2-fold compound dilutions using Bravo and Echo. ELISA assay was performed on Pierce™ streptavidin coated high capacity 384-well white plates (Thermofisher Cat #15505). The plates were coated overnight at 4° C. with 50 μl/well of biotinlyated phospho-tyrosine mouse mAb (Cell Signaling Technology, 9417s).
HEK293T cells were grown in DMEM containing 10% FBS, 1% Pen/Strep, 1% G-Max. A day before the assay, cells were transiently transfected with 6.8 μg of NanoLuc-tagged AXL plasmid DNA and 8 μg of carrier DNA using FuGENE® HD Transfection Reagent (Promega) according to manufacturer's instructions. On the day of the assay, transfected cells were harvested and resuspended in OptiMEM. 70,000 cells/well were added to the compounds containing assay plates. After a gentle mix and a short spin, the plates were incubated at 37° C. After 1 h, the cells were lysed followed by a brief centrifugation and 30 min of shaking at 300 rpm. Meanwhile, the antibody coated plates were brought to room temperature and then were washed ten times in PBS with 0.05% Tween 20 (ELISA-wash buffer). 50 μl/well of cell lysate was transferred to the ELISA plates and shaken for 2 hours. After washing again with the ELISA wash buffer, the samples were diluted with 25 μl of PBS. The captured NanoLuc tagged p-AXL was detected using Nano-Glo® Luciferase Assay System (Promega) and manufacturer's instruction. The luminescence signal was measured using Envision plate reader. IC50 values were determined by fitting the data to a standard 4-parameter logistic equation.

[2] = molecular target: T2, Axl (Homo sapiens, UniProt P30530); experiment: Biochemical potency, HTRF KinEASE-TK kinase assay; set-up: purchased Invitrogen; details: 5 nM AXL, 700 μM ATP
T2 sequence (P30530 26-894): T1 sequence (P30530 26-894)
Protocol: Measurement of Biochemical Compound Potency of Axl Inhibitors
Purified recombinant human AXL, TYRO3 and MER proteins were purchased from Invitrogen™. 10 nM AXL, 2 nM TYRO3 or MER were incubated with varying concentrations of compounds in 50 mM HEPES, pH 7.4, 10 mM MgCl2, 0.01% BSA, 1 mM DTT and 2% DMSO in a total volume of 20 μl in a 384-well microplate (Corning™ #3640) at RT for 1 h. The AXL, TYRO3 and MER enzymatic reaction was initiated by transferring 10 μl of enzyme and compound mixture into 10 μl of 1.6 μM TK Substrate-biotin (HTRF® KinEASE-TK kit, Cisbio) and 1400 μM ATP pre-incubated in 50 mM HEPES, pH 7.4, 10 mM MgCl2, 0.01% BSA, 1 mM DTT in a 384-well microplate (Corning™ #3640) at RT, giving the final reaction conditions: 5 nM AXL, 1 nM TYRO3 or MER, 800 nM TK Substrate-biotin and 700 μM ATP in 50 mM HEPES, pH 7.4, 10 mM MgCl2, 0.01% BSA, 1 mM DTT and 1% DMSO with varying concentrations of compounds. Following 2 h incubation at RT, the AXL, TYRO3 and MER enzymatic reaction was stopped by transfer of 10 μl of reaction into 10 μl of detection mix (400 nM Streptavidin-XL665, 200-fold dilution TK Antibody-Cryptate and detection buffer, HTRF® KinEASE-TK kit, Cisbio) in a white 384-well microplate (Perkin Elmer, OptiPlate 384). After 1 h incubation at RT, the plate was put into a plate reader (Evision) to read at 665/620 nm (acceptor/donor) for HTRF. The value of the DMSO blank (MIN inhibition=100% activity) was used as a negative control. The positive control was established by adding 5 μl of enzyme and DMSO mixture into 10 μl of detection mix followed by addition of 5 μl of TK Substrate-biotin and ATP mixture (MAX inhibition=0% activity). To calculate the percent activity, Equation 1 was used. Ratio665/620 is the value at a given compound concentration: […]

Row | SMILES | IC50 [1] [nM] | IC50 [2] [nM]
1 | Cc1ccc(C#N)nc1-c1ccc(-c2c[nH]c3ncc(-c4ccc5c(c4)CC[C@@H](N4C6COCC4C6)CC5)cc23)cc1 [Example 75, 5-Methyl-6-(4-{5-[(7S)-7-{3-oxa-6-azabicyclo[3.1.1]heptan-6-yl}-6,7,8,9-tetrahydro-5H-benzo[7]annulen-2-yl]-1H-pyrrolo[2,3-b]pyridin-3-yl}phenyl)pyridine-2-carbonitrile] | < 100 | < 100
2 | Cc1ncccc1-c1ccc(-c2c[nH]c3ncc(-c4ccc5c(c4)CC[C@@H](N4C6COCC4C6)CC5)cc23)cc1 [Example 74, 6-[(7S)-2-{3-[4-(2-Methylpyridin-3-yl)phenyl]-1H-pyrrolo[2,3-b]pyridin-5-yl}-6,7,8,9-tetrahydro-5H-benzo[7]annulen-7-yl]-3-oxa-6-azabicyclo[3.1.1]heptane] | 100 to 1000 | < 100
3 | Cc1cccnc1-n1cc(-c2c[nH]c3ncc(-c4ccc5c(c4)CC[C@@H](N4C6COCC4C6)CC5)cc23)cn1 [Example 27, 6-[(7S)-2-{3-[1-(3-Methylpyridin-2-yl)-1H-pyrazol-4-yl]-1H-pyrrolo[2,3-b]pyridin-5-yl}-6,7,8,9-tetrahydro-5H-benzo[7]annulen-7-yl]-3-oxa-6-azabicyclo[3.1.1]heptane] | < 100 | < 100
4 | Cc1cccnc1-c1ccnc(-c2c[nH]c3ncc(-c4ccc5c(c4)CC[C@@H](N4C6COCC4C6)CC5)cc23)c1 [Example 83, 3-Methyl-2′-{5-[(7S)-7-{3-oxa-6-azabicyclo[3.1.1]heptan-6-yl}-6,7,8,9-tetrahydro-5H-benzo[7]annulen-2-yl]-1H-pyrrolo[2,3-b]pyridin-3-yl}-2,4′-bipyridine] | < 100 | < 100
5 | Cc1ccc(C#N)c(-c2ccc(-c3n[nH]c4ncc(-c5ccc6c(c5)CC[C@@](C)(N5CCC[C@H]5C)CC6)cc34)cc2)n1 [Example 71, 6-Methyl-2-(4-{5-[(7S)-7-methyl-7-[(2R)-2-methylpyrrolidin-1-yl]-6,7,8,9-tetrahydro-5H-benzo[7]annulen-2-yl]-1H-pyrazolo[3,4-b]pyridin-3-yl}phenyl)pyridine-3-carbonitrile] | < 100 | < 100
6 | Cn1c(-c2ccc(-c3c[nH]c4ncc(-c5ccc6c(c5)CC[C@@H](N5C7COCC5C7)CC6)cc34)cc2)cccc1=O [Example 39, 1-Methyl-6-[4-[5-[(7S)-7-(3-oxa-6-azabicyclo[3.1.1]heptan-6-yl)-6,7,8,9-tetrahydro-5H-benzo[7]annulen-3-yl]-1H-pyrrolo[2,3-b]pyridin-3-yl]phenyl]pyridin-2-one] | < 100 | < 100
7 | Cc1cccnc1-c1nnc(-c2n[nH]c3ncc(-c4ccc5c(c4)CC[C@@H](N4C6COCC4C6)CC5)cc23)o1 [Example 25, 6-[(7S)-2-{3-[5-(3-Methylpyridin-2-yl)-1,3,4-oxadiazol-2-yl]-1H-pyrazolo[3,4-b]pyridin-5-yl}-6,7,8,9-tetrahydro-5H-benzo[7]annulen-7-yl]-3-oxa-6-azabicyclo[3.1.1]heptane] | < 100 | < 100

The next lines start with the values.

Row | IC50 [1] [nM] | IC50 [2] [nM] | SMILES
8 | 100 to 1000 | < 100 | Cc1ccc(C(F)(F)F)nc1-c1ccc(-c2n[nH]c3ncc(-c4ccc5c(c4)CC[C@@H](N4C6COC[C@H]4C6)CC5)cc23)cc1 [Example 145, (1R)-6-[(7S)-2-(3-{4-[3-Methyl-6-(trifluoromethyl)pyridin-2-yl]phenyl}-1H-pyrazolo[3,4-b]pyridin-5-yl)-6,7,8,9-tetrahydro-5H-benzo[7]annulen-7-yl]-3-oxa-6-azabicyclo[3.1.1]heptane]
9 | 100 to 1000 | < 100 | Cc1ccc(C)c(-c2ccc(-c3n[nH]c4ncc(-c5ccc6c(c5)CC[C@@H](N5C7COC[C@H]5C7)CC6)cc34)c(F)c2)n1 [Example 143, (1R)-6-[(7S)-2-{3-[4-(3,6-Dimethylpyridin-2-yl)-2-fluorophenyl]-1H-pyrazolo[3,4-b]pyridin-5-yl}-6,7,8,9-tetrahydro-5H-benzo[7]annulen-7-yl]-3-oxa-6-azabicyclo[3.1.1]heptane]
10 | 100 to 1000 | < 100 | Cc1ccc(C(C)(C)O)nc1-c1ccc(-c2n[nH]c3ncc(-c4ccc5c(c4)CC[C@@H](N4C6COCC4C6)CC5)cc23)cc1 [Example 192, 2-[5-Methyl-6-(4-{5-[(7S)-7-{3-oxa-6-azabicyclo[3.1.1]heptan-6-yl}-6,7,8,9-tetrahydro-5H-benzo[7]annulen-2-yl]-1H-pyrazolo[3,4-b]pyridin-3-yl}phenyl)pyridin-2-yl]propan-2-ol]
11 | 100 to 1000 | < 100 | Cc1cc(C)c(-c2ccc(-c3n[nH]c4ncc(-c5ccc6c(c5)CC[C@@H](N5C7COCC5C7)CC6)cc34)cc2)cn1 [Example 195, 6-[(7S)-2-{3-[4-(4,6-Dimethylpyridin-3-yl)phenyl]-1H-pyrazolo[3,4-b]pyridin-5-yl}-6,7,8,9-tetrahydro-5H-benzo[7]annulen-7-yl]-3-oxa-6-azabicyclo[3.1.1]heptane]
12 | < 100 | < 100 | COc1ccnc(-c2ccc(-c3n[nH]c4ncc(-c5ccc6c(c5)CC[C@@H](N5C7COCC5C7)CC6)cc34)cc2)c1OC [Example 152, 6-[(7S)-2-{3-[4-(3,4-Dimethoxypyridin-2-yl)phenyl]-1H-pyrazolo[3,4-b]pyridin-5-yl}-6,7,8,9-tetrahydro-5H-benzo[7]annulen-7-yl]-3-oxa-6-azabicyclo[3.1.1]heptane]
13 | 100 to 1000 | < 100 | Cc1ccc(C)c(-c2ccc(-c3c[nH]c4ncc(-c5ccc6c(c5)CC[C@@H](N5CCCC5)CC6)cc34)cc2)n1 [Example 148, 3,6-Dimethyl-2-(4-{5-[(7S)-7-(pyrrolidin-1-yl)-6,7,8,9-tetrahydro-5H-benzo[7]annulen-2-yl]-1H-pyrrolo[2,3-b]pyridin-3-yl}phenyl)pyridine]
14 | < 100 | < 100 | Cc1ccc(C)c(-c2ccc(-c3c[nH]c4ncc(-c5ccc6c(c5)CC[C@@H](N5C7COCC5C7)CC6)cc34)cc2C)n1 [Example 191, 6-[(7S)-2-{3-[4-(3,6-Dimethylpyridin-2-yl)-3-methylphenyl]-1H-pyrrolo[2,3-b]pyridin-5-yl}-6,7,8,9-tetrahydro-5H-benzo[7]annulen-7-yl]-3-oxa-6-azabicyclo[3.1.1]heptane]
